Assay results published in patent publication US9453253B2, “Methods of using isotopically labelled isoniazid for the diagnosis of mycobacterial infections” (priority 2012, dated 2016).

What was measured:
[1] = tested on: Mycobacterium tuberculosis H37Rv; format: cell-based; settings: M. tuberculosis H37Rv, 1 mg/mL, 1 hour, head gas, control subtracted
M. bovis BCG = format: cell-based

Compound: [15NH2][15NH]C(=O)c1ccncc1 [^15N2-hydrazyl-INH]
- 30/28 mass signal in nitrogen gas, dependency on CFU [1]: proportional to CFU/mL
- 30/28 mass signal in nitrogen gas, dependency on CFU (M. bovis BCG): proportional to CFU/mL
- 30/28 mass signal in nitrogen gas, dose dependence (M. bovis BCG): dependent upon dose
- 30/28 mass signal in nitrogen gas, time dependence (M. bovis BCG): increase in the signal over the course of an hour, which then begins to decrease by 4 hours
